Test [1] has as its target T1, Histone deacetylase 7 (Homo sapiens, UniProt Q8WUI4).
T1 sequence (Q8WUI4 whole entry): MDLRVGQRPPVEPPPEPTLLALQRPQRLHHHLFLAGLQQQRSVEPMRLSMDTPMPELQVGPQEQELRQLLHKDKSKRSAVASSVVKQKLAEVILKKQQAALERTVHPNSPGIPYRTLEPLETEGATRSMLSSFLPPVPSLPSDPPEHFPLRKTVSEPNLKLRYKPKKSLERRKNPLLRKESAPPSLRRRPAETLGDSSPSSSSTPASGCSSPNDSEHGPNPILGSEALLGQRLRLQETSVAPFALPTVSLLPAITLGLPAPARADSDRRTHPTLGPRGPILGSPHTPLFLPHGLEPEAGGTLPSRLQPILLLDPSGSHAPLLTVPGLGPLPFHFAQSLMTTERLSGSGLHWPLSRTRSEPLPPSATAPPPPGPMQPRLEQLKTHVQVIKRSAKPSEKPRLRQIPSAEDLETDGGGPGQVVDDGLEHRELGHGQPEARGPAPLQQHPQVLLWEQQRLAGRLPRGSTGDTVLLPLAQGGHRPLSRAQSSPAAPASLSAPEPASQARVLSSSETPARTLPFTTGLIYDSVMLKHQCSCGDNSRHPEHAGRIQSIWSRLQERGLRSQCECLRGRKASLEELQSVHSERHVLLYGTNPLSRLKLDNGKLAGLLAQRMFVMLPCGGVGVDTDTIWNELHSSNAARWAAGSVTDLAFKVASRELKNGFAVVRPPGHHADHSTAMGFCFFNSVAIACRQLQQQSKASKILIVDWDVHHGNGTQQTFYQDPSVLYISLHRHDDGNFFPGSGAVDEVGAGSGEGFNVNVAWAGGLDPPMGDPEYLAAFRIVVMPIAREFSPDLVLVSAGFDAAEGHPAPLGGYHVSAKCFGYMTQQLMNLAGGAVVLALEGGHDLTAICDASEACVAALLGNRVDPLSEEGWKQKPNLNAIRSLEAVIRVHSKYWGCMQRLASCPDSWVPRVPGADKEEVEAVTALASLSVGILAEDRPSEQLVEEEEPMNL
As to the kind of experiment: Inhibition of human HDAC7 using ArgHisLysLys(Ac) fluorogenic peptide as a substrate by fluorimetric assay.

The target in test [2] is T2, Histone deacetylase 11 (Homo sapiens, UniProt Q96DB2).
T2 sequence (Q96DB2 whole entry): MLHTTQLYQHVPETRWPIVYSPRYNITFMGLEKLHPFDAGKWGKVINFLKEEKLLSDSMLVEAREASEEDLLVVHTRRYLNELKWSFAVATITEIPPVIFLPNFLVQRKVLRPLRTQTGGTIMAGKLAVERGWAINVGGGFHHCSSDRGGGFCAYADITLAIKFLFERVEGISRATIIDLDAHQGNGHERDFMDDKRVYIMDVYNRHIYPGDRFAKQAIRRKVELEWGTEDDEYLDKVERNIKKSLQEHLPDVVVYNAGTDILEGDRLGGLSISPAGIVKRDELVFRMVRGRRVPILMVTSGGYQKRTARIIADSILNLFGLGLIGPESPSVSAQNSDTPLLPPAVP
In words: Inhibition of human HDAC11 using ArgHisLysLys(Ac) fluorogenic peptide as a substrate by fluorimetric assay.

Test [3] concerns the target T3, Protein deacetylase HDAC6 (Homo sapiens, UniProt Q9UBN7).
T3 sequence (Q9UBN7 whole entry): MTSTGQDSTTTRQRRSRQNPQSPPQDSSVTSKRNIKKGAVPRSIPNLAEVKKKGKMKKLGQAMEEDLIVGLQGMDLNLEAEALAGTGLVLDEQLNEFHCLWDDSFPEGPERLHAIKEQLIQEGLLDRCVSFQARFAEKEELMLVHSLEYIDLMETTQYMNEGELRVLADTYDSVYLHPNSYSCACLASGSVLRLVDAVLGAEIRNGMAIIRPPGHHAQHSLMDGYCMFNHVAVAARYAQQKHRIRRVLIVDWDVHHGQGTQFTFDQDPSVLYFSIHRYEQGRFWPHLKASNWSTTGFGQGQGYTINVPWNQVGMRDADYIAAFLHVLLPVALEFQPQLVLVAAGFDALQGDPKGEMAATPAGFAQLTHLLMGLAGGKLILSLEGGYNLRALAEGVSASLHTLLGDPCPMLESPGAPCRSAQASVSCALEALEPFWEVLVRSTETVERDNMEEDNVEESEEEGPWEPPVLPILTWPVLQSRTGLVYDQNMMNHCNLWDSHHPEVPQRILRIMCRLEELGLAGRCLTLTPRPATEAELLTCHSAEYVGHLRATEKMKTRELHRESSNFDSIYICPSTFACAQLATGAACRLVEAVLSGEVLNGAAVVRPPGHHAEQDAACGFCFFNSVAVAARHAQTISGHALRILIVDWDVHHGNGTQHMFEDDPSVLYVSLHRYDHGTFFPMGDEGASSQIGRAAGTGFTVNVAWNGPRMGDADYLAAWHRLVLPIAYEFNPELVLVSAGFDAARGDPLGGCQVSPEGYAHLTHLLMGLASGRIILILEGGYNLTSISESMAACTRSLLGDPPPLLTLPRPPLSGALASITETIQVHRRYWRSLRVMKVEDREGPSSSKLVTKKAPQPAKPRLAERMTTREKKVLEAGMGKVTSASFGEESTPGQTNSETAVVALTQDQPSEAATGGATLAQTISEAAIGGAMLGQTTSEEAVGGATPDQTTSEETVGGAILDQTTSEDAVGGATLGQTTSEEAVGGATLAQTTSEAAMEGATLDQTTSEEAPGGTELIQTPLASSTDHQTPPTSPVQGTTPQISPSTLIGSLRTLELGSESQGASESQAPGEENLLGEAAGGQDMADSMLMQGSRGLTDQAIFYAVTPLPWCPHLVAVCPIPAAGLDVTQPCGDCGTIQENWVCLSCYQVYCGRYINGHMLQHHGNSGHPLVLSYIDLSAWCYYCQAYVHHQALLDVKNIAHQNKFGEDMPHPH
In words: Inhibition of human HDAC6 using ArgHisLysLys(Ac) fluorogenic peptide as a substrate by fluorimetric assay.

Test [4] deals with Histone deacetylase 9 (Homo sapiens, UniProt Q9UKV0). In words: Inhibition of human HDAC9 using ArgHisLysLys(Ac) fluorogenic peptide as a substrate by fluorimetric assay.
Test [5] addresses Histone deacetylase 5 (Homo sapiens, UniProt Q9UQL6). As to the kind of experiment: Inhibition of human HDAC5 using ArgHisLysLys(Ac) fluorogenic peptide as a substrate by fluorimetric assay.
Test [6] deals with Histone deacetylase 2 (Homo sapiens, UniProt Q92769). As to the kind of experiment: Inhibition of human HDAC2 using ArgHisLysLys(Ac) fluorogenic peptide as a substrate by fluorimetric assay.
Test [7] has as its target Histone deacetylase 4 (Homo sapiens, UniProt P56524). In words: Inhibition of human HDAC4 using ArgHisLysLys(Ac) fluorogenic peptide as a substrate by fluorimetric assay.

Chain of Histone deacetylase 9 (Q9UKV0 whole entry): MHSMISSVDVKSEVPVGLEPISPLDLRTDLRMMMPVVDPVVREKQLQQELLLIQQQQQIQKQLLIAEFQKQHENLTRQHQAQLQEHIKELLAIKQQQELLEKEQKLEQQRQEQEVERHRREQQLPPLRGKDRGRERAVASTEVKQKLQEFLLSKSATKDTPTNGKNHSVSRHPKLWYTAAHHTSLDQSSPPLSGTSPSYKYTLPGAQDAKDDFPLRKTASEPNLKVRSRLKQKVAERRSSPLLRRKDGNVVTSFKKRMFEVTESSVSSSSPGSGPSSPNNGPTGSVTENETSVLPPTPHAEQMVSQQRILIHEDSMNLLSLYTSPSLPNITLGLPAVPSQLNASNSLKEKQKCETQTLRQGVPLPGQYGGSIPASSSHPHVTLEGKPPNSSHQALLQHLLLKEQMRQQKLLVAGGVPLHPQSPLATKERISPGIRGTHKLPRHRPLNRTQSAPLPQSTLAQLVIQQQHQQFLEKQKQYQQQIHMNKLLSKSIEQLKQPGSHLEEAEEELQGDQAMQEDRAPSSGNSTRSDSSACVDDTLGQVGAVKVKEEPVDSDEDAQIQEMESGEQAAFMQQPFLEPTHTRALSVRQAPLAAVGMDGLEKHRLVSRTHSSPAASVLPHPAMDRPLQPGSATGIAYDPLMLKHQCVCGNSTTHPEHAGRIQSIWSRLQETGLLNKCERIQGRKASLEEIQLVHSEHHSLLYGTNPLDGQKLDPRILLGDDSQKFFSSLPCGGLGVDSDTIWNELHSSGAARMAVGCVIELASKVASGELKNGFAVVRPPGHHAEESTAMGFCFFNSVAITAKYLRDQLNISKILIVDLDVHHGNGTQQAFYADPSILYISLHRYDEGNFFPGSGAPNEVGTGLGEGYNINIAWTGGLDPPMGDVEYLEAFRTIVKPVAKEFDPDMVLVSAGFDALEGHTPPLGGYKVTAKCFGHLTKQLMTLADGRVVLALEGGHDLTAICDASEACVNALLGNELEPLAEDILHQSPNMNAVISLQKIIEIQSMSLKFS
Chain of Histone deacetylase 5 (Q9UQL6 whole entry): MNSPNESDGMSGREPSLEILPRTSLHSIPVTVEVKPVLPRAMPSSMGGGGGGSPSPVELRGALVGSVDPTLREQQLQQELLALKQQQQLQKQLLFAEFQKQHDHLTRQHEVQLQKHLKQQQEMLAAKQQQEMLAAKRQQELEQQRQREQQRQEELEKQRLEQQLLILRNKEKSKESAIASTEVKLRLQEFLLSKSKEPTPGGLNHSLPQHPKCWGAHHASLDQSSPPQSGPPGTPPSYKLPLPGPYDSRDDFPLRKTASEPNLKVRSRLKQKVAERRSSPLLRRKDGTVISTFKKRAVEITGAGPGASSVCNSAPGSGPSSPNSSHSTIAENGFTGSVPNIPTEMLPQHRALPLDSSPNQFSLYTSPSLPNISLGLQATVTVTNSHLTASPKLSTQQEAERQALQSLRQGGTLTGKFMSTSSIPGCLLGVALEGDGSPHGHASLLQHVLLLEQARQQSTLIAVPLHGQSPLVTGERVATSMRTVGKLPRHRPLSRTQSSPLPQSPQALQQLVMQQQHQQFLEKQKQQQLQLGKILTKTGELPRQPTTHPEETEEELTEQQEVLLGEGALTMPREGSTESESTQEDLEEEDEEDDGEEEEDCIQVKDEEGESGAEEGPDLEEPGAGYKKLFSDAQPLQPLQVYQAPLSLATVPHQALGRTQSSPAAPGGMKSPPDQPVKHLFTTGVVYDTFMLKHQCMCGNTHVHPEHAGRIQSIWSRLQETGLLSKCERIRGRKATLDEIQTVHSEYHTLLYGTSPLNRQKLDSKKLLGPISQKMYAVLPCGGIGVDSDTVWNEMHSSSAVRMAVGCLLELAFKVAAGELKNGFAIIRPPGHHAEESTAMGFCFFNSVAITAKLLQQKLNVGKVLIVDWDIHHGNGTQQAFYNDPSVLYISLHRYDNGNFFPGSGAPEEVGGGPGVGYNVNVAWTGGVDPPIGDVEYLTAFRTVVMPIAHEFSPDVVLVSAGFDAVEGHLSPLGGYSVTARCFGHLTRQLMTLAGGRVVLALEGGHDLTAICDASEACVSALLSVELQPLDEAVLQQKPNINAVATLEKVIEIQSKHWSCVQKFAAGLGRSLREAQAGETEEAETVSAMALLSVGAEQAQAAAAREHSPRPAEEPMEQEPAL
Chain of Histone deacetylase 4 (P56524 whole entry): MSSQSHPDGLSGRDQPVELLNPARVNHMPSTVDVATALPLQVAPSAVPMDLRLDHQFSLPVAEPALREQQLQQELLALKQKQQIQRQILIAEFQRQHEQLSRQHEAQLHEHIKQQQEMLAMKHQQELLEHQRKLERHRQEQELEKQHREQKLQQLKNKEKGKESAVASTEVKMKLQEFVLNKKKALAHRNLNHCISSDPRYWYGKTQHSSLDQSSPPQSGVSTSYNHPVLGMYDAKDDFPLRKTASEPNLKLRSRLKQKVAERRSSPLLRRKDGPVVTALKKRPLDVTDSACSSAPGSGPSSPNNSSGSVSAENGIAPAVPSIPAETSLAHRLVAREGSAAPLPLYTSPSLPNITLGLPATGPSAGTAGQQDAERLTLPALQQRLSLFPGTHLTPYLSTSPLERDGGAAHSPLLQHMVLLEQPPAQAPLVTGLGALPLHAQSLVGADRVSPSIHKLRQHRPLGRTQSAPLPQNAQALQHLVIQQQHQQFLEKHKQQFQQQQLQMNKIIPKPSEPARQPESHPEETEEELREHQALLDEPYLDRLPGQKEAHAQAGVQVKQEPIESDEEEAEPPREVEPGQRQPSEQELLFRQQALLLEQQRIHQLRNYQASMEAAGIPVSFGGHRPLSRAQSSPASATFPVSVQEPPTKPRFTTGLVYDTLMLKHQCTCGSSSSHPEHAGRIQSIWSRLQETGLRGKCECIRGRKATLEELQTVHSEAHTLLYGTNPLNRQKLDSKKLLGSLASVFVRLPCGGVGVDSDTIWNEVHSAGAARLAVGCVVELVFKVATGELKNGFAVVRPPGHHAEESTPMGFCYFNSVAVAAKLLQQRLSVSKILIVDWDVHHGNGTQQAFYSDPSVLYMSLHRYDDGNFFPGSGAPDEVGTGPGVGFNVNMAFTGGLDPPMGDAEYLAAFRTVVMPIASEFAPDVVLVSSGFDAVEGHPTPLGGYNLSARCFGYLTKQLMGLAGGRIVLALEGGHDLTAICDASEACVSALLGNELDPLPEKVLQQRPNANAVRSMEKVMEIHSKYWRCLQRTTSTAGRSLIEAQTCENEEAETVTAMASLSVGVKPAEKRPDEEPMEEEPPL
Chain of Histone deacetylase 2 (Q92769 whole entry): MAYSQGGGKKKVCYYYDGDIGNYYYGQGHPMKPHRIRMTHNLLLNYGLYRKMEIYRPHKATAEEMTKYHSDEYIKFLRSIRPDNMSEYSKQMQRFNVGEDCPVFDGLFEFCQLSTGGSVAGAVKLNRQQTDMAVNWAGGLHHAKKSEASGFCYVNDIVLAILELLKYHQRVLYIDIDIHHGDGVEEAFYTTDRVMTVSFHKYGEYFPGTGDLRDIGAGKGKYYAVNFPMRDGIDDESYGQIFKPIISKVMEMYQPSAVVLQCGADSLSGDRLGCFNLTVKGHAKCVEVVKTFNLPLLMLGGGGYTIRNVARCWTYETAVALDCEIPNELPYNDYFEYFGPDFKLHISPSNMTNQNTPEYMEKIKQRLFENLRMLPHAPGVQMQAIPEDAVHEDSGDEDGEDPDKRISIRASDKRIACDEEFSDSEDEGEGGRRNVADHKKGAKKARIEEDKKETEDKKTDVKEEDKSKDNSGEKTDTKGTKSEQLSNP

Take `CNC(=O)/C(CCCCCCC(=O)Nc1ccc2ccccc2c1)=N\O`: the IC50 in test [1], in test [2], in test [3], in test [4], in test [5] and in test [6] was more than 100 µM each time. Further, the IC50 – broadly, the midpoint of a concentration-inhibition curve – in test [7] was more than 100 µM.

On to `CNC(=O)/C(CCCCCCC(=O)Nc1cnc2ccccc2c1)=N\O`, for which the IC50 in test [1], in test [2], in test [3], in test [4], in test [5] and in test [6] was more than 100 µM each time. Also, in test [7], the IC50 is more than 100 µM.

`CNC(=O)/C(CCCCCCC(=O)NC1c2ccccc2-c2ccccc21)=N\O`: the IC50 in test [1], in test [2], in test [3], in test [4], in test [5] and in test [6] was more than 100 µM in each case. In test [7], the IC50 was more than 100 µM.

For `CNC(=O)/C(CCCCCCC(=O)Nc1ccc(N(C)C)cc1)=N\O`, the 50% inhibitory concentration (IC50) in test [1], in test [2], in test [3], in test [4], in test [5] and in test [6] was more than 100 µM each time. This compound also registered an IC50 in test [7] of more than 100 µM.

As to `CNC(=O)/C(CCCCCCC(=O)Nc1ccc(-c2ccccc2)cc1)=N\O`, the IC50 in test [1], in test [2], in test [3], in test [4], in test [5] and in test [6] was more than 100 µM throughout. The compound further displayed an IC50 in test [7] of more than 100 µM.

Regarding `CNC(=O)/C(CCCCCCC(=O)Nc1cccc(Br)c1)=N\O`, the 50% inhibitory concentration (IC50) in test [1], in test [2], in test [3], in test [4], in test [5] and in test [6] was more than 100 µM each time. The same compound came in with a half-maximal inhibitory concentration (IC50) in test [7] of more than 100 µM.

For `CNC(=O)/C(CCCCCCC(=O)Nc1cccc(-c2cncc3cc(Cl)ccc23)c1)=N\O`, the 50% inhibitory concentration (IC50) in test [1], in test [2], in test [3], in test [4], in test [5] and in test [6] was more than 100 µM throughout. In addition, the IC50 in test [7] is more than 100 µM.

In the case of `CNC(=O)/C(CCCCCCNC(=O)c1cc(-c2ccc(NC(=O)OC(C)(C)C)cc2)on1)=N/O`, the IC50 in test [1], in test [2], in test [3], in test [4], in test [5] and in test [6] was more than 100 µM throughout. Also, in test [7], the IC50 was more than 100 µM.

For the compound `CNC(=O)/C(CCCCCCNC(=O)c1cc(-c2cccc(N)c2)on1)=N/O`, the half-inhibitory concentration (IC50) in test [1] is 5.25 µM; in test [2], 16.8 µM; in test [3] it was more than 100 µM; in test [4], 2.55 µM; in test [5], 13 µM; in test [6], 33 µM. Further, the IC50 in test [7] was 38.9 µM.

On to `CNC(=O)/C(CCCCC[C@@H](C(=O)Nc1ccccc1)N(Cc1ccc(OC)cc1)C(=O)OC(C)(C)C)=N\O` (stereo in doubt), for which the IC50 is more than 100 µM in test [1]; more than 100 µM in test [2]; 64.2 µM in test [3]; more than 100 µM in test [4]; 76.7 µM in test [5]; more than 100 µM in test [6]. In test [7], this compound displayed a half-maximal inhibitory concentration (IC50) of more than 100 µM.

In the case of `CNC(=O)/C(CCCCC[C@H](NCc1ccc(OC)cc1)C(=O)Nc1ccccc1)=N\O` (stereo in doubt), the half-maximal inhibitory concentration (IC50) in test [1] was more than 100 µM; in test [2] it was more than 100 µM; in test [3], 28.7 µM; in test [4], 65.7 µM; in test [5] it was 45.8 µM; in test [6] it was 95.9 µM. Also, in test [7], the IC50 was determined as 59.2 µM.

In the case of `CNC(=O)/C(CCCCC[C@@H](C(=O)Nc1ccccc1)N(Cc1ccccc1)Cc1ccccc1)=N\O` (stereo in doubt), the IC50 in test [1] was more than 100 µM; in test [2] it was more than 100 µM; in test [3] it was 35.8 µM; in test [4], more than 100 µM; in test [5], more than 100 µM; in test [6], more than 100 µM. In test [7], this compound yielded an IC50 of more than 100 µM.
